The values below are quoted from earlier work in patent US8211048B2 (Henry Ford Health System, priority 2006, dated 2012).

Read-outs that look alike come from different tables or passages of the source.

For the compound `O=C(O)CC(O)(CC(=O)O)C(=O)O` [Citrate], the pKa2 (25 C) was 4.76. The pKa3 reads like this: (25 C) 6.40; (as given for pre-filter fluid pH) 6.3.
